Experimental data taken from publication PMC9958940 (Viruses, 2023).
Like-named read-outs stand apart in the source and are kept apart here. Starred links: 1 amine or outer side, 2 acyl side, 3 side chain; linkers in the order of their positions; H or OH if unused. Positions of bridges follow the written chain, without caps; N, C: chain ends. Non-standard residues stand in square brackets, D forms with d. Residues, ends and D or L forms follow the SMILES beside them. *: point of attachment. hTyr(3S-OH,4S-OH,3'-OSO3H) = N[C@H](C(=O)O)[C@H](O)[C@@H](O)c1ccc(O)c(OS(=O)(=O)O)c1; pTerphenylCO(4''-OnC5H11) = CCCCCOc1ccc(-c2ccc(-c3ccc(C(=O)*)cc3)cc2)cc1; Orn(4R-OH,5R-OH) = O=C([C@H](C[C@@H](O)[C@@H](O)N[*:3])N[*:1])[*:2]; hTyr(3S-OH,4S-OH) = N[C@H](C(=O)O)[C@H](O)[C@@H](O)c1ccc(O)cc1; Pro(3S-OH,4S-Me) = C[C@H]1CN[C@H](C(=O)O)[C@H]1O; X1 = CCCCCOc1ccc(-c2cc(-c3ccc(C(=O)*)cc3)no2)cc1; Gln(3R-OH) = NC(=O)C[C@@H](O)[C@H](N)C(=O)O; Hyp = O=C(O)[C@@H]1C[C@@H](O)CN1

Legend:
SARS-CoV-2 Wuhan strain [1] = assay: microbe, parasite or virus in culture; type: cell-based; conditions: VeroE6/TMPRSS2 cells; for IC50: Severe acute respiratory syndrome coronavirus 2, Wuhan strain, MOI 0.003, extracellular viral RNA at 24 h
[2] = Cell viability (cell-counting kit-8, WST-8) in VeroE6/TMPRSS2 cells; type: cell-based; conditions: African green monkey, 24 h with compound
[3] = system: Dengue virus serotype 2 (DENV-2); parameters: method as in ref [12] = [12]; conditions: Vero cells; ref [12]; read-out: IC50, DENV-2 infection; cited from earlier work
Zika virus (ZIKV) = system: Zika virus (ZIKV); parameters: method as in ref [14] = [14]; conditions: Vero cells; ref [14]; read-out: IC50, ZIKV infection; cited from earlier work
SARS-CoV-2 = conditions: Vero cells, read-out: IC50, SARS-CoV-2 infection, cited from earlier work
SARS-CoV-2 Wuhan strain [4] = type: cell-based
SARS-CoV-2 Wuhan strain [5] = conditions: VeroE6/TMPRSS2 cells, essentially in the same experimental condition; ref Ohashi et al. [29]; read-out: SARS-CoV-2 RNA IC50; cited from earlier work
VeroE6/TMPRSS2 cells = conditions: read-out: Cell Viability CC50, essentially in the same experimental condition, ref Ohashi et al. [29]; cited from earlier work
SARS-CoV-2 Wuhan strain [6] = assay: microbe, parasite or virus in culture; type: cell-based; conditions: Severe acute respiratory syndrome coronavirus 2, 24 h, Calu-3 cells, 3 h inoculation plus 21 h, read-out: SARS-CoV-2 RNA IC50
[7] = Cell viability (cell-counting kit-8, WST-8) in Calu-3 cells; type: cell-based; conditions: human, 24 h with compound
[8] = system: Enterovirus 71 (EV71) replicon; parameters: method as in ref [10] = [10]; conditions: Vero cells, estimated; ref [10]; read-out: IC50 to luciferase carrying EV71 replicon; cited from earlier work
[9] = system: Chikungunya virus (CHIKV); parameters: method as in ref [11] = [11]; conditions: U2OS or BHK-21 cells; ref [11]; read-out: IC50, CHIKV infection; cited from earlier work
helicase of DENV-2 = target: helicase of DENV-2; parameters: method as in ref [13] = [13]; conditions: in vitro; ref [13]; read-out: IC50, DENV-2 helicase enzymatic activity; cited from earlier work
3CLpro = system: 3CLpro; parameters: method as in ref [33] = [33]; conditions: in vitro; ref [33]; read-out: IC50, 3CLpro enzymatic activity; cited from earlier work
[10] = parameters: method as in ref [7] = [7]; conditions: human adults, 100 mg daily; ref [7]; cited from earlier work

| SMILES | IC50 (SARS-CoV-2 Wuhan strain [1]) | CC50 at 24 h [2] | IC50 [3] | IC50 (Zika virus (ZIKV)) | effect on viral RNA levels, compound added at post-entry phase (SARS-CoV-2 Wuhan strain [4]) | effect on viral RNA levels, compound added at virus entry phase (SARS-CoV-2 Wuhan strain [4]) | IC50 (SARS-CoV-2 Wuhan strain [5]) | CC50 (VeroE6/TMPRSS2 cells) | also measured |
| --- | --- | --- | --- | --- | --- | --- | --- | --- | --- |
| CCCCCOc1ccc(-c2ccc(-c3ccc(C(=O)N[C@H]4C[C@@H](O)[C@@H](O)NC(=O)[C@@H]5[C@@H](O)[C@@H](C)CN5C(=O)[C@H]([C@@H](C)O)NC(=O)[C@H]([C@H](O)[C@@H](O)c5ccc(O)cc5)NC(=O)[C@@H]5C[C@@H](O)CN5C(=O)[C@H]([C@@H](C)O)NC4=O)cc3)cc2)cc1 [Anidulafungin] ({pTerphenylCO(4''-OnC5H11)}-[Orn(4R-OH,5R-OH)]T[Hyp][hTyr(3S-OH,4S-OH)]T[Pro(3S-OH,4S-Me)]; lactam 1-C) | 7.09 µM | 24.6 µM | 3.24 µM | 2.08 µM |  |  |  |  | IC50 (SARS-CoV-2; ref [16]): 4.64 µM |
| CC[C@H](C)C[C@H](C)CCCCCCCCC(=O)N[C@H]1C[C@@H](O)[C@@H](NCCN)NC(=O)[C@@H]2[C@@H](O)CCN2C(=O)[C@H]([C@H](O)CCN)NC(=O)[C@H]([C@H](O)[C@@H](O)c2ccc(O)cc2)NC(=O)[C@@H]2C[C@@H](O)CN2C(=O)[C@H]([C@@H](C)O)NC1=O [Caspofungin] | > 64 µM | > 64 µM | 20.8 µM | 75.8 µM |  |  |  |  | effect on viral RNA levels (in words) (SARS-CoV-2 Wuhan strain [1]; up to 64 µM): did not show any antiviral effect |
| COc1ccc2cc1Oc1ccc(cc1)C[C@H]1c3c(cc4c(c3Oc3cc5c(cc3OC)CCN(C)[C@@H]5C2)OCO4)CCN1C [Cepharanthine] |  |  |  |  | lower viral activity | considerable inhibition | 0.35 µM | 25.1 µM |  |
| CCCCCOc1ccc(-c2cc(-c3ccc(C(=O)N[C@H]4C[C@@H](O)[C@@H](O)NC(=O)[C@@H]5[C@@H](O)[C@@H](C)CN5C(=O)[C@H]([C@H](O)CC(N)=O)NC(=O)[C@H]([C@H](O)[C@@H](O)c5ccc(O)c(OS(=O)(=O)O)c5)NC(=O)[C@@H]5C[C@@H](O)CN5C(=O)[C@H]([C@@H](C)O)NC4=O)cc3)no2)cc1 [Micafungin] (X1-[Orn(4R-OH,5R-OH)]T[Hyp][hTyr(3S-OH,4S-OH,3'-OSO3H)][Gln(3R-OH)][Pro(3S-OH,4S-Me)]; lactam 1-C) | 26.1 µM | > 64 µM | 10.2 µM | 7.35 µM |  |  |  |  | selectivity index (SI = CC50/IC50) (SARS-CoV-2 Wuhan strain [1]): > 2.45; IC50 (SARS-CoV-2 Wuhan strain [6]): 55.3 µM; CC50 at 24 h [7]: > 64 µM; IC50 [8]: 5 to 8 µM; IC50 [9]: 20.6 µM; IC50 (SARS-CoV-2; ref [15]): 5.5 to 12.9 µM; IC50 (helicase of DENV-2): 4.98 µM; IC50 (3CLpro): 47.6 µM; half-life [10]: 11 to 17 h |
| CCC(CC)COC(=O)[C@H](C)N[P@](=O)(OC[C@H]1O[C@@](C#N)(c2ccc3c(N)ncnn23)[C@H](O)[C@@H]1O)Oc1ccccc1 [Remdesivir] |  |  |  |  | remarkable antiviral activity | no inhibitory effect | 1.58 µM | > 64 µM |  |
